# Laboratory results taken from US20230145794A1, “SOLVENT COMPOSITIONS PROMOTING PLANT GROWTH” (WinField Solutions, LLC, priority 2021, published 2023).
# Assay: not given
# Conditions: known solvent, from Safety Data Sheet; cited from earlier work
SMILES,Flash Point [C. °],Density [g/mL],Boiling Point [C. °]
"CCCCOC(=O)C(C)O (stereo not shown) [compound 8, Butyl lactate]",76,,
"CC(O)CO (stereo not shown) [compound 9, Propylene Glycol]",101,1.036,
"CCCCOCCOCCO [compound 4, Diethylene glycol butyl ether]",78,0.967,
"CCCCOCCO [compound 3, Ethylene glycol butyl ether, 2-butoxyl ethanol]",60,,
"CCCCC(CC)COC(=O)C(C)O (stereo not shown) [compound 5, Lactic acid, 2-ethylhexyl ester]",110,1.209,
"CCCCCOC(C)=O [compound 14, Amyl Acetate]",32,0.876,
"CCCCC(CC)CO (stereo not shown) [compound 7, Ethyl hexanol]",73,0.833,185
"OCC1CCCO1 (stereo not shown) [compound 6, Tetrahydrofurfyl Alcohol]",84,,
"CCOC(C)=O [compound 1, Ethyl acetate]",,1.049,
"COCC(C)O (stereo not shown) [compound 2, 1-methoxy-2-propanol]",,0.942,
"CC(=O)OCCCCCCCC=O [compound 11, Oxo-octyl acetate]",86,0.867,211
"CC(=O)OCC(COC(C)=O)OC(C)=O [compound 12, Glyceryl triacetate]",138,,

# Assay: Physical properties of solvent/PGR compositions (flash point tester, pH, density)
# Format: physicochemical
# Conditions: flashpoint tester
# Procedure: The physical properties of the various solvents and solvent combinations in combination with the assortment of PGR compositions were determined using standard laboratory equipment. Flash point was determined using a flashpoint tester.
# The solvents initially examined included 2-butoxy ethanol (“BE”), BHT, propylene glycol (“PG”), methoxy propanol, water, polyethelene glycol (“PEG”), and Tetrahydrofurfyl alcohol (“THFA”), alone and/or in various combinations, with and without PGR compositions including Kinetin, indole butyric acid (“IBA”) and gibberellin A4 (“GA4”).
row,SMILES,Flash Point [C°]
1,"OCC1CCCO1 (stereo not shown) [Comp 41, THFA]",183
2,"COCC(C)O (stereo not shown) [Comp 40, methoxy propanol]",89
